Experimental data taken from ChEMBL document CHEMBL1129777, “Novel 6-substituted 2-aminotetralins with potent and selective affinity for the dopamine D3 receptor” (Bioorg Med Chem Lett, 1996).

What was measured:
[1] = biological target: D(3) dopamine receptor (Homo sapiens, UniProt P35462); test: Binding affinity against human Dopamine receptor D3 in Chinese hamster ovary cells using [3H]spiperone.; assay type: cell-based
[2] = biological target: D(2) dopamine receptor (Homo sapiens, UniProt P14416); test: Binding affinity against human Dopamine receptor D2 in mouse LtK- cells using [3H]spiperone.; assay type: cell-based
Chain of D(2) dopamine receptor (P14416 whole entry): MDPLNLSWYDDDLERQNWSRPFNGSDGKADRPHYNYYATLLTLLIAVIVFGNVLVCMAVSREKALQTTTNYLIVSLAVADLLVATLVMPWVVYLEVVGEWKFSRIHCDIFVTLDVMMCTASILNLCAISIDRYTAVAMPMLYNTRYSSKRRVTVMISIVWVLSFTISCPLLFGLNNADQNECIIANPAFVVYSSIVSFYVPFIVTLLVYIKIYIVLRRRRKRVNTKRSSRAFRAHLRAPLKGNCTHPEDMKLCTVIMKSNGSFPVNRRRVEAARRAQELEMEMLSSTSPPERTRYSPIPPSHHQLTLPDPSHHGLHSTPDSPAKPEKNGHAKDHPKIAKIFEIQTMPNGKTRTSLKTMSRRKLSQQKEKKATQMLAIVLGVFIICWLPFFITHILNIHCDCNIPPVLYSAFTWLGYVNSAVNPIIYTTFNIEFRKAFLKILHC

Chain of D(3) dopamine receptor (P35462 whole entry): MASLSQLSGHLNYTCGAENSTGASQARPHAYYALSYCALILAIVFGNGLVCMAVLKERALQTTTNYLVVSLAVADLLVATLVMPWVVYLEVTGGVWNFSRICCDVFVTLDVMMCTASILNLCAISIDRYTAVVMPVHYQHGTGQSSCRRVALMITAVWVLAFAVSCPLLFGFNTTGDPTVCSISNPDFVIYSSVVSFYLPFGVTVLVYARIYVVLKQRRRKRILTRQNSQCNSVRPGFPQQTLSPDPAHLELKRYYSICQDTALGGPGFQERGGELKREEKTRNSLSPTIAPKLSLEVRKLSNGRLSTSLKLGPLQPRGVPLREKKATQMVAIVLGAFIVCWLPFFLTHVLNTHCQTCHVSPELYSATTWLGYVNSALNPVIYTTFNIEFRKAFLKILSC

Ki [1]	Ki [2]	Structure (SMILES)
1580 nM	–	CCCN(CCC)C1CCc2cc(CCc3ccc(S(C)(=O)=O)cc3)ccc2C1 (stereo not given)
6.31 nM	794 nM	CCCN(CCC)C1CCc2cc(CN(C(=O)OC)c3ccc(OC)cc3)ccc2C1 (stereo not given)
20 nM	–	CCCN(CCC)[C@@H]1CCc2c(ccc(C(O)Cc3ccc(Cl)c(Cl)c3)c2OC)C1 (stereo not given in full)
3.98 nM	1000 nM	CCCN(CCC)C1CCc2cc(CCc3ccc(C(C)=O)cc3)ccc2C1 (stereo not given)
6.31 nM	100 nM	CCCN(CCC)[C@@H]1CCc2c(ccc(CCc3ccc(C(F)(F)F)cc3)c2OC)C1
50.1 nM	1260 nM	CCCN(CCC)[C@@H]1CCc2c(ccc(C(O)Cc3ccc(Cl)cc3)c2OC)C1 (stereo in doubt)
7.94 nM	631 nM	CCCN(CCC)C1CCc2cc(CN(C(C)=O)c3ccc(OC)cc3)ccc2C1 (stereo not given)
2 nM	794 nM	CCCN(CCC)C1CCc2cc(CCc3ccc(/C(C)=N\O)cc3)ccc2C1 (stereo not given)
3.16 nM	251 nM	CCCN(CCC)C1CCc2cc(CCc3ccc(OC)cc3)ccc2C1 (stereo not given)
1.58 nM	631 nM	CCCN(CCC)C1CCc2cc(CS(=O)(=O)c3ccc(OC)cc3)ccc2C1 (stereo not given)
3.16 nM	794 nM	CCCN(CCC)[C@@H]1CCc2cc(CCc3ccc(C(C)=O)cc3)ccc2C1
6.31 nM	316 nM	CCCN(CCC)[C@@H]1CCc2c(ccc(C(O)Cc3ccc(Cl)cc3)c2OC)C1 (single isomer, unassigned; isomer I)
631 nM	–	CCCN(CCC)C1CCc2cc(CCc3ccc(C(N)=O)cc3)ccc2C1 (stereo not given)
501 nM	–	CCCN(CCC)[C@@H]1CCc2c(ccc(CCc3ccc(NS(C)(=O)=O)cc3)c2OC)C1
25.1 nM	6310 nM	CCCN(CCC)C1CCc2cc(CN(C(N)=O)c3ccc(OC)cc3)ccc2C1 (stereo not given)
5.01 nM	126 nM	CCCN(CCC)[C@@H]1CCc2c(ccc(CCc3ccc(Cl)cc3)c2OC)C1
3160 nM	–	CCCN(CCC)C1CCc2cc(CCc3ccc(C(=O)O)cc3)ccc2C1 (stereo not given)
50.1 nM	–	CCCN(CCC)[C@@H]1CCc2c(ccc(C(O)Cc3ccc(OC)cc3)c2OC)C1 (stereo not given in full)
20 nM	–	CCCN(CCC)[C@@H]1CCc2c(ccc(CCc3ccccc3)c2OC)C1
0.158 nM	200 nM	CCCN(CCC)[C@@H]1CCc2cc(CS(=O)(=O)c3ccc(I)cc3)ccc2C1
1.26 nM	200 nM	CCCN(CCC)C1CCc2cc(CSc3ccc(OC)cc3)ccc2C1 (stereo not given)
1 nM	316 nM	CCCN(CCC)[C@@H]1CCc2cc(CCc3ccc(/C(C)=N\O)cc3)ccc2C1
63.1 nM	1000 nM	CCCN(CCC)[C@@H]1CCc2c(ccc(C(O)Cc3ccccc3)c2OC)C1 (stereo not given in full)
1.26 nM	501 nM	CCCN(CCC)[C@@H]1CCc2cc(CS(=O)(=O)c3ccc(OC)cc3)ccc2C1
25.1 nM	631 nM	CCCN(CCC)[C@@H]1CCc2c(ccc(C(O)Cc3ccc(Cl)cc3)c2OC)[C@@H]1C (stereo not given in full)
2 nM	251 nM	CCCN(CCC)C1CCc2cc(CCc3ccc(C(=O)OCC)cc3)ccc2C1 (stereo not given)

Structure (SMILES)	Ki [1]	Ki [2]
CCCN(CCC)[C@@H]1CCc2c(OC)cccc2[C@@H]1C	12.6 nM	63.1 nM
CCCN(CCC)[C@H]1CCc2cc(CCc3ccc(Cl)cc3)ccc2C1	10 nM	126 nM
CCCN(CCC)C1CCc2cc(CCc3ccc(O)cc3)ccc2C1 (stereo not given)	12.6 nM	316 nM
CCCN(CCC)C1CCc2cc(CCc3ccccc3)ccc2C1 (stereo not given)	3.98 nM	398 nM
CCCN(CCC)[C@@H]1CCc2cc(CCc3ccc(Cl)cc3)ccc2C1	3.98 nM	398 nM
